Assay results: ChEMBL document CHEMBL4334492, “Nectriatide, a Potentiator of Amphotericin B Activity from Nectriaceae sp. BF-0114” (J Nat Prod, 2019)
Calls of active or inactive are those of the source. The rule behind the calls is not given here. Non-standard residues stand in square brackets, D forms with d. Residues, ends and D or L forms follow the SMILES beside them. *: point of attachment. NMeY = CN[C@@H](Cc1ccc(O)cc1)C(=O)O; 2Abz = Nc1ccccc1C(=O)O; tBu = CC(C)(C)*

Legend:
Candida albicans [1] = assay: Potentiation of amphotericin-induced antifungal activity against Candida albicans ATCC 90029 assessed as amphotericin MIC at 8 ug/ml after 24 hrs by broth microdilution method (reference value: 0.5 ug/ml); assay type: functional; conditions: ATCC 90029, 24 h
Candida albicans [2] = assay: Potentiation of amphotericin-induced antifungal activity against Candida albicans ATCC 90029 assessed as fold reduction in amphotericin MIC at 16 ug/ml after 24 hrs by broth microdilution method relative to amphotericin MIC alone; assay type: functional
Candida albicans [3] = assay: Potentiation of amphotericin-induced antifungal activity against Candida albicans ATCC 90029 assessed as amphotericin MIC at 32 ug/ml after 24 hrs by broth microdilution method (reference value: 0.5 ug/ml); assay type: functional; conditions: ATCC 90029, 24 h
Candida albicans [4] = assay: Potentiation of amphotericin-induced antifungal activity against Candida albicans ATCC 90029 assessed as amphotericin MIC at 16 ug/ml after 24 hrs by broth microdilution method (reference value: 0.5 ug/ml); assay type: functional; conditions: ATCC 90029, 24 h
Candida albicans [5] = assay: Potentiation of amphotericin-induced antifungal activity against Candida albicans ATCC 90029 assessed as fold reduction in amphotericin MIC at 8 ug/ml after 24 hrs by broth microdilution method relative to amphotericin MIC alone; assay type: functional
Candida albicans [6] = assay: Potentiation of amphotericin-induced antifungal activity against Candida albicans ATCC 90029 assessed as fold reduction in amphotericin MIC at 32 ug/ml after 24 hrs by broth microdilution method relative to amphotericin MIC alone; assay type: functional
Rhizopus arrhizus [7] = assay: Potentiation of amphotericin-induced antifungal activity against Rhizopus oryzae NBRC4705 assessed as amphotericin MIC at 4 ug/ml after 24 hrs by broth microdilution assay (reference value: 1 ug/ml); assay type: functional; conditions: NBRC4705, 24 h
HEK293 [8] = assay: Cytotoxicity against human HEK293 cells at 128 ug/ml after 24 hrs by MTT assay; assay type: cell-based; conditions: hek293, 24 h
Candida albicans [9] = assay: Potentiation of miconazole-induced antifungal activity against Candida albicans ATCC 90029 at 64 ug/ml after 24 hrs by broth microdilution assay; assay type: functional, organism-based
Saccharomyces cerevisiae [10] = assay: Potentiation of amphotericin-induced antifungal activity against Saccharomyces cerevisiae S288c assessed as fold reduction in amphotericin MIC at 8 ug/ml after 24 hrs by broth microdilution assay relative to amphotericin MIC alone; assay type: functional
Rhizopus arrhizus [11] = assay: Potentiation of amphotericin-induced antifungal activity against Rhizopus oryzae NBRC4705 assessed as fold reduction in amphotericin MIC at 16 ug/ml after 24 hrs by broth microdilution assay relative to amphotericin MIC alone; assay type: functional
Rhizopus arrhizus [12] = assay: Potentiation of amphotericin-induced antifungal activity against Rhizopus oryzae NBRC4705 assessed as amphotericin MIC at 16 ug/ml after 24 hrs by broth microdilution assay (reference value: 1 ug/ml); assay type: functional; conditions: NBRC4705, 24 h
Aspergillus niger [13] = assay: Potentiation of amphotericin-induced antifungal activity against Aspergillus niger ATCC 6275 assessed as fold reduction in amphotericin MIC at 32 ug/ml after 48 hrs by broth microdilution method relative to amphotericin MIC alone; assay type: functional
Saccharomyces cerevisiae [14] = assay: Potentiation of amphotericin-induced antifungal activity against Saccharomyces cerevisiae S288c assessed as fold reduction in amphotericin MIC at 16 ug/ml after 24 hrs by broth microdilution assay relative to amphotericin MIC alone; assay type: functional
Jurkat = assay: Cytotoxicity against human Jurkat cells at 128 ug/ml after 24 hrs by MTT assay; assay type: cell-based
Rhizopus arrhizus [15] = assay: Potentiation of amphotericin-induced antifungal activity against Rhizopus oryzae NBRC4705 assessed as fold reduction in amphotericin MIC at 2 ug/ml after 24 hrs by broth microdilution assay relative to amphotericin MIC alone; assay type: functional
Rhizopus arrhizus [16] = assay: Potentiation of amphotericin-induced antifungal activity against Rhizopus oryzae NBRC4705 assessed as fold reduction in amphotericin MIC at 8 ug/ml after 24 hrs by broth microdilution assay relative to amphotericin MIC alone; assay type: functional
Rhizopus arrhizus [17] = assay: Potentiation of amphotericin-induced antifungal activity against Rhizopus oryzae NBRC4705 assessed as amphotericin MIC at 2 ug/ml after 24 hrs by broth microdilution assay (reference value: 1 ug/ml); assay type: functional; conditions: NBRC4705, 24 h
HCT-116 = assay: Cytotoxicity against human HCT116 cells at 128 ug/ml after 24 hrs by MTT assay; assay type: cell-based; conditions: hct-116, 24 h
Saccharomyces cerevisiae [18] = assay: Potentiation of amphotericin-induced antifungal activity against Saccharomyces cerevisiae S288c assessed as amphotericin MIC at 16 ug/ml after 24 hrs by broth microdilution assay (reference value: 0.5 ug/ml); assay type: functional
Rhizopus arrhizus [19] = assay: Potentiation of amphotericin-induced antifungal activity against Rhizopus oryzae NBRC4705 assessed as fold reduction in amphotericin MIC at 32 ug/ml after 24 hrs by broth microdilution assay relative to amphotericin MIC alone; assay type: functional
HEK293 [20] = assay: Cytotoxicity against human HEK293 cells assessed as reduction in cell viability after 24 hrs by MTT assay; assay type: cell-based; conditions: HEK293, 24 h
Saccharomyces cerevisiae [21] = assay: Potentiation of amphotericin-induced antifungal activity against Saccharomyces cerevisiae S288c assessed as amphotericin MIC at 2 ug/ml after 24 hrs by broth microdilution assay (reference value: 0.5 ug/ml); assay type: functional
Saccharomyces cerevisiae [22] = assay: Potentiation of amphotericin-induced antifungal activity against Saccharomyces cerevisiae S288c assessed as fold reduction in amphotericin MIC at 2 ug/ml after 24 hrs by broth microdilution assay relative to amphotericin MIC alone; assay type: functional
HaCaT = assay: Cytotoxicity against human HaCaT cells assessed as reduction in cell viability at 128 ug/ml after 24 hrs by MTT assay; assay type: cell-based
Saccharomyces cerevisiae [23] = assay: Potentiation of amphotericin-induced antifungal activity against Saccharomyces cerevisiae S288c assessed as amphotericin MIC at 8 ug/ml after 24 hrs by broth microdilution assay (reference value: 0.5 ug/ml); assay type: functional
Rhizopus arrhizus [24] = assay: Potentiation of amphotericin-induced antifungal activity against Rhizopus oryzae NBRC4705 assessed as amphotericin MIC at 8 ug/ml after 24 hrs by broth microdilution assay (reference value: 1 ug/ml); assay type: functional; conditions: NBRC4705, 24 h
Saccharomyces cerevisiae [25] = assay: Potentiation of amphotericin-induced antifungal activity against Saccharomyces cerevisiae S288c assessed as fold reduction in amphotericin MIC at 4 ug/ml after 24 hrs by broth microdilution assay relative to amphotericin MIC alone; assay type: functional
Candida albicans [26] = assay: Potentiation of micafungin-induced antifungal activity against Candida albicans ATCC 90029 at 64 ug/ml after 24 hrs by broth microdilution assay; assay type: functional, organism-based
Saccharomyces cerevisiae [27] = assay: Potentiation of amphotericin-induced antifungal activity against Saccharomyces cerevisiae S288c assessed as amphotericin MIC after 24 hrs by broth microdilution assay (reference value: 0.5 ug/ml); assay type: functional, organism-based
Saccharomyces cerevisiae [28] = assay: Potentiation of amphotericin-induced antifungal activity against Saccharomyces cerevisiae S288c assessed as fold reduction in amphotericin MIC at 32 ug/ml after 24 hrs by broth microdilution assay relative to amphotericin MIC alone; assay type: functional
Rhizopus arrhizus [29] = assay: Potentiation of amphotericin-induced antifungal activity against Rhizopus oryzae NBRC4705 assessed as amphotericin MIC after 24 hrs by broth microdilution assay (reference value: 1 ug/ml); assay type: functional, organism-based
Rhizopus arrhizus [30] = assay: Potentiation of amphotericin-induced antifungal activity against Rhizopus oryzae NBRC4705 assessed as amphotericin MIC at 32 ug/ml after 24 hrs by broth microdilution assay (reference value: 1 ug/ml); assay type: functional; conditions: NBRC4705, 24 h
Saccharomyces cerevisiae [31] = assay: Potentiation of amphotericin-induced antifungal activity against Saccharomyces cerevisiae S288c assessed as amphotericin MIC at 4 ug/ml after 24 hrs by broth microdilution assay (reference value: 0.5 ug/ml); assay type: functional
Rhizopus arrhizus [32] = assay: Potentiation of amphotericin-induced antifungal activity against Rhizopus oryzae NBRC4705 assessed as fold reduction in amphotericin MIC at 4 ug/ml after 24 hrs by broth microdilution assay relative to amphotericin MIC alone; assay type: functional
Aspergillus niger [33] = assay: Potentiation of amphotericin-induced antifungal activity against Aspergillus niger ATCC 6275 assessed as amphotericin MIC at 32 ug/ml after 48 hrs by broth microdilution method (reference value: 0.25 ug/ml); assay type: functional; conditions: ATCC 6275, 48 h
Saccharomyces cerevisiae [34] = assay: Potentiation of amphotericin-induced antifungal activity against Saccharomyces cerevisiae S288c assessed as amphotericin MIC at 32 ug/ml after 24 hrs by broth microdilution assay (reference value: 0.5 ug/ml); assay type: functional
Candida albicans [35] = assay: Potentiation of amphotericin-induced antifungal activity against Candida albicans ATCC 90029 assessed as fold reduction in amphotericin MIC at 2 ug/ml after 24 hrs by broth microdilution method relative to amphotericin MIC alone; assay type: functional
Candida albicans [36] = assay: Potentiation of amphotericin-induced antifungal activity against Candida albicans ATCC 90029 assessed as amphotericin MIC at 4 ug/ml after 24 hrs by broth microdilution method (reference value: 0.5 ug/ml); assay type: functional; conditions: ATCC 90029, 24 h
Candida albicans [37] = assay: Potentiation of amphotericin-induced antifungal activity against Candida albicans ATCC 90029 assessed as fold reduction in amphotericin MIC at 4 ug/ml after 24 hrs by broth microdilution method relative to amphotericin MIC alone; assay type: functional
Candida albicans [38] = assay: Potentiation of amphotericin-induced antifungal activity against Candida albicans ATCC 90029 assessed as amphotericin MIC at 2 ug/ml after 24 hrs by broth microdilution method (reference value: 0.5 ug/ml); assay type: functional; conditions: ATCC 90029, 24 h

CC(C)[C@H]1NC(=O)[C@H](C)NC(=O)c2ccccc2NC(=O)[C@H](Cc2ccc(O)cc2)N(C)C1=O
MIC (Candida albicans [1]): 0.13 mg/L
Ratio (Candida albicans [2]): 8
MIC (Candida albicans [3]): 0.031 mg/L
MIC (Candida albicans [4]): 0.063 mg/L
Ratio (Candida albicans [5]): 4
Ratio (Candida albicans [6]): 16

CN[C@@H](Cc1ccc(OC(C)(C)C)cc1)C(=O)Nc1ccccc1C(=O)O
MIC (Candida albicans [3]): 0.13 mg/L
Ratio (Candida albicans [6]): 4

CC(C)[C@@H]1NC(=O)[C@H](C)NC(=O)c2ccccc2NC(=O)[C@H](Cc2ccc(O)cc2)N(C)C1=O
MIC (Rhizopus arrhizus [7]): 0.5 mg/L
Activity (HEK293 [8]): Non-Toxic
Activity (Candida albicans [9]): inactive
Ratio (Saccharomyces cerevisiae [10]): 8
Ratio (Rhizopus arrhizus [11]): 4
MIC (Rhizopus arrhizus [12]): 0.25 mg/L
Ratio (Aspergillus niger [13]): 1
Ratio (Saccharomyces cerevisiae [14]): 16
Activity (Jurkat): Non-Toxic
Ratio (Rhizopus arrhizus [15]): 2
MIC (Candida albicans [1]): 0.13 mg/L
Ratio (Candida albicans [2]): 8
Ratio (Rhizopus arrhizus [16]): 4
MIC (Rhizopus arrhizus [17]): 0.5 mg/L
Activity (HCT-116): Non-Toxic
MIC (Saccharomyces cerevisiae [18]): 0.031 mg/L
Ratio (Rhizopus arrhizus [19]): 4
MIC (Candida albicans [3]): 0.031 mg/L
IC50 (HEK293 [20]): > 128 mg/L
MIC (Saccharomyces cerevisiae [21]): 0.13 mg/L
Ratio (Saccharomyces cerevisiae [22]): 4
Activity (HaCaT): Non-Toxic
MIC (Saccharomyces cerevisiae [23]): 0.063 mg/L
MIC (Rhizopus arrhizus [24]): 0.25 mg/L
Ratio (Saccharomyces cerevisiae [25]): 4
MIC (Candida albicans [4]): 0.063 mg/L
Activity (Candida albicans [26]): inactive
Activity (Saccharomyces cerevisiae [27]): Dose-dependent effect
Ratio (Saccharomyces cerevisiae [28]): 16
Activity (Rhizopus arrhizus [29]): Dose-dependent effect
MIC (Rhizopus arrhizus [30]): 0.25 mg/L
MIC (Saccharomyces cerevisiae [31]): 0.13 mg/L
Ratio (Rhizopus arrhizus [32]): 2
MIC (Aspergillus niger [33]): 0.25 mg/L
Ratio (Candida albicans [5]): 4
Ratio (Candida albicans [6]): 16
MIC (Saccharomyces cerevisiae [34]): 0.031 mg/L

CC(C)[C@H](NC(=O)[C@H](C)N)C(=O)N(C)[C@@H](Cc1ccc(OC(C)(C)C)cc1)C(=O)Nc1ccccc1C(=O)O (H-AV[NMeY](tBu)[2Abz]-OH)
MIC (Candida albicans [1]): 0.031 mg/L
Ratio (Candida albicans [2]): 16
Ratio (Candida albicans [35]): 2
MIC (Candida albicans [36]): 0.13 mg/L
Ratio (Candida albicans [37]): 4
MIC (Candida albicans [3]): 0.031 mg/L
MIC (Candida albicans [4]): 0.031 mg/L
MIC (Candida albicans [38]): 0.25 mg/L
Ratio (Candida albicans [6]): 16

CN[C@@H](Cc1ccc(OC(C)(C)C)cc1)C(=O)Nc1ccccc1C(=O)N[C@@H](C)C(=O)N[C@H](C(=O)O)C(C)C (H-[NMeY](tBu)[2Abz]AV-OH)
MIC (Candida albicans [1]): 0.13 mg/L
Ratio (Candida albicans [2]): 8
MIC (Candida albicans [3]): 0.031 mg/L
MIC (Candida albicans [4]): 0.063 mg/L
Ratio (Candida albicans [5]): 4
Ratio (Candida albicans [6]): 16

CC(C)[C@H](N)C(=O)N(C)[C@@H](Cc1ccc(OC(C)(C)C)cc1)C(=O)Nc1ccccc1C(=O)N[C@@H](C)C(=O)O (H-V[NMeY](tBu)[2Abz]A-OH)
MIC (Candida albicans [1]): 0.25 mg/L
Ratio (Candida albicans [2]): 4
MIC (Candida albicans [3]): 0.063 mg/L
MIC (Candida albicans [4]): 0.13 mg/L
Ratio (Candida albicans [5]): 2
Ratio (Candida albicans [6]): 8
